# What was measured:
# [1] = target: T1, MAO-A (Homo sapiens, UniProt P21397); experiment: Decrease of plasma DHPG in patients (HPLC analysis of MAO-A inhibition); assay type: in vivo
# T1 construct: from tissue; host or cells: patients in vivo; DHPG measured in plasma
# T1 sequence (P21397 1-527): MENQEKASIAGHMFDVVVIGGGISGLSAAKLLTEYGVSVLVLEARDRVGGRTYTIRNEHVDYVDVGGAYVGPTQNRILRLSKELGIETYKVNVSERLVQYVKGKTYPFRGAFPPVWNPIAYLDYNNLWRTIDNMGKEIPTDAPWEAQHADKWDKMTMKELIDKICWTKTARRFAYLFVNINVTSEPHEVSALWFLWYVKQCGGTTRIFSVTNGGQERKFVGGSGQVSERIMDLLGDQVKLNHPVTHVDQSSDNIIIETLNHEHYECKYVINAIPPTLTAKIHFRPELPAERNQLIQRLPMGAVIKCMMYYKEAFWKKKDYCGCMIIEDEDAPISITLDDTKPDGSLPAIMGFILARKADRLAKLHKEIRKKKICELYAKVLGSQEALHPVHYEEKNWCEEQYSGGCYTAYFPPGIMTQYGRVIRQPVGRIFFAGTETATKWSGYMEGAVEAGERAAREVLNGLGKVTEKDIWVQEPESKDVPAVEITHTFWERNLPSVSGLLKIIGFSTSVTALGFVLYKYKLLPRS
# Procedure: 8 patients, 7 female and 1 male, ages 62-81 with a median age of 68 and above with diagnosis of probable Alzheimer's disease according to DSM-IV (290.00 or 290.10) and NINCDS-ADRDA criteria were administered ladostigil tartrate according to the following schedule:
# Decrease of 3,4-dihydroxyphenylglycol (“DHPG”) in plasma is indicative of monoamine oxidase inhibition, especially in the brain. DHPG plasma concentrations were measured in 6 of the aforementioned patients at baseline and at termination analysis, using HPLC equipped with an electrochemical detector.
# The decrease in DHPG concentration in the six patients was determined. The average decrease in DHPG concentration was determined to be 57% with a standard deviation of 29.
# [2] = system: Cholinesterase; experiment: Cholinesterase inhibition in patients at pre-dose; assay type: in vivo, human; conditions: at maintenance and at termination analyses
# Procedure: 8 patients, 7 female and 1 male, ages 62-81 with a median age of 68 and above with diagnosis of probable Alzheimer's disease according to DSM-IV (290.00 or 290.10) and NINCDS-ADRDA criteria were administered ladostigil tartrate according to the following schedule: […]
# [3] = clinical; conditions: human, in vivo; for Cmax / AUC / AUC(0-t): 100 mg, after ladostigil tartrate 100 mg twice daily; for AUC: AUC (M)
smiles,measurement,setting,value
"C#CCN[C@@H]1CCc2ccc(OC(=O)N(C)CC)cc21 [ladostigil, R(+)-6-(N-methyl, N-ethyl-carbamoyloxy)-N′-propargyl-1-aminoindan]",DHPG (T),"[1]; Patient 1, termination analysis Week 9 vs baseline",−63%
same,DHPG (T),"[1]; Patient 2, termination analysis Week 9 vs baseline",−86%
same,DHPG (T),"[1]; Patient 5, termination analysis Week 9 vs baseline",>−79%
same,DHPG (T),"[1]; Patient 6, termination analysis Week 9 vs baseline",−73%
same,DHPG (T),"[1]; Patient 7, termination analysis Week 9 vs baseline",−30%
same,DHPG (T),"[1]; Patient 8, termination analysis Week 9 vs baseline",−13%
same,"Cholinesterase inhibition at pre-dose, in words",[2],evident
same,half-life,[3]; both,1.08 h
same,Cmax,"[3]; both, Cmax (M), mean, mean of patients, maintenance analysis Week 4",2.02e-06 M
same,Cmax,"[3]; both, Cmax (T), mean, mean of patients, termination analysis Week 9",1.88e-06 M
same,AUC,"[3]; Patient 1, maintenance analysis Week 4",314 ng·h/mL
same,AUC,"[3]; Patient 2, maintenance analysis Week 4",589 ng·h/mL
same,AUC,"[3]; Patient 3, maintenance analysis Week 4",1000 ng·h/mL
same,AUC,"[3]; Patient 4, maintenance analysis Week 4",927 ng·h/mL
same,AUC,"[3]; Patient 5, maintenance analysis Week 4",436 ng·h/mL
same,AUC,"[3]; Patient 6, maintenance analysis Week 4",551 ng·h/mL
same,AUC,"[3]; Patient 7, maintenance analysis Week 4",52 ng·h/mL
same,AUC,"[3]; Patient 8, maintenance analysis Week 4",500 ng·h/mL
same,AUC(0-t),"[3]; Patient 1, termination analysis Week 9",246 ng·h/mL
same,AUC(0-t),"[3]; Patient 2, termination analysis Week 9",2300 ng·h/mL
same,AUC(0-t),"[3]; Patient 3, termination analysis Week 9",1450 ng·h/mL
same,AUC(0-t),"[3]; Patient 4, termination analysis Week 9",482 ng·h/mL
same,AUC(0-t),"[3]; Patient 5, termination analysis Week 9",398 ng·h/mL
same,AUC(0-t),"[3]; Patient 6, termination analysis Week 9",901 ng·h/mL
same,AUC(0-t),"[3]; Patient 7, termination analysis Week 9",118 ng·h/mL
same,AUC(0-t),"[3]; Patient 8, termination analysis Week 9",350 ng·h/mL
same,Cmax,"[3]; Cmax (M), Patient 1, maintenance analysis Week 4",1.1e-06 M
same,Cmax,"[3]; Cmax (M), Patient 2, maintenance analysis Week 4",1.2e-06 M
same,Cmax,"[3]; Cmax (M), Patient 3, maintenance analysis Week 4",3.5e-06 M
same,Cmax,"[3]; Cmax (M), Patient 4, maintenance analysis Week 4",3.9e-06 M
same,Cmax,"[3]; Cmax (M), Patient 5, maintenance analysis Week 4",1.4e-06 M
same,Cmax,"[3]; Cmax (M), Patient 6, maintenance analysis Week 4",1.5e-06 M
same,Cmax,"[3]; Cmax (M), Patient 7, maintenance analysis Week 4",2e-07 M
same,Cmax,"[3]; Cmax (M), Patient 8, maintenance analysis Week 4",1.7e-06 M
same,Cmax,"[3]; Cmax (T), Patient 1, termination analysis Week 9",7e-07 M
same,Cmax,"[3]; Cmax (T), Patient 2, termination analysis Week 9",3.8e-06 M
same,Cmax,"[3]; Cmax (T), Patient 3, termination analysis Week 9",3.9e-06 M
same,Cmax,"[3]; Cmax (T), Patient 4, termination analysis Week 9",1.6e-06 M
same,Cmax,"[3]; Cmax (T), Patient 5, termination analysis Week 9",1e-06 M
same,Cmax,"[3]; Cmax (T), Patient 6, termination analysis Week 9",2.5e-06 M
same,Cmax,"[3]; Cmax (T), Patient 7, termination analysis Week 9",4e-07 M
same,Cmax,"[3]; Cmax (T), Patient 8, termination analysis Week 9",1.3e-06 M
